Patent publication US20120107323A1, “KINASE PROTEIN BINDING INHIBITORS” (University of Florida, priority 2009, published 2012)

Tested on: Panc-1 orthotopic xenografts
Assay: Orthotopic pancreatic xenograft, Panc-1
Format: in vivo, mice
Design: dose or concentration left out as unconfirmed
Conditions: Panc-1, 21 days
Description: For the orthotopic model of pancreatic cancer, the University of Florida IACUC approved the following protocol (IACUC Study #2000801506). The pancreatic cancer cell lines, Mia paca-2 and Panc-1 cells were stably transfected using luciferase-RFP (red fluorescent protein) reporter gene for in vivo imaging of the xenografts. Following expansion and sorting of RFP positive cells, cells were expanded in culture and 5×10^6 tumor cells were implanted into the pancreas of 20 mice. For intra-pancreatic implantation of cells, mice were anesthetized with Isoflurane using the ACS provided and maintained rodent anesthesia machine. Under sterille surgical conditions, via 1.0 cm incision of the skin, abdominal wall and peritonium, the spleen was retracted and cells were injected in […] into the tail of the pancreas using a 29-gauge needle. The abdominal wall and peritoneum was sutured using 5.0 absorbable surgical sutures and the skin was closed with medical glue (dermabond). Postoperative analgesia was 0.05 mg/kg of buprenorphine subcutaneously per 8-12 hours postoperatively.
Mice were hand restrained prior to intraperitoneal injections. Mice were euthanized 6 weeks after tumor innoculation and tumor and tissue collected. As described below, mice were imaged weekly with the IVIS lumina imager and tumor size was estimated by the bioluminescent signal. […]

**Q.** For CSc1ncnc2c1ccn2C1O[C@H](COP(=O)(O)O)[C@@H](O)[C@H]1O (stereo partly drawn) [INT2-31, 4-(Methylthio)-7-(5-O-phosphono-D-ribofuranosyl)-{7H-Pyrrolo[2,3-d]pyrimidine}], which “growth of the orthotopic pancreatic xenografts” value is on record?
**A.** sufficiently reduced the growth
